Measured values published in patent US20040157738A1, “Novel oxygen containing fused cyclic derivatives and herbicidal, desiccant and defoliate compositions containing them” (ISHIHARA SANGYO KAISHA, LTD., priority 2003, published 2004).

Tests used:
Assay type in all cases: in vivo
[1] = tested on: crabgrass (Digitaria sanguinalis L.), DIGSA; assay: Test Example 2: post-emergence (foliage treatment) herbicidal activity (growth controlling degree); conditions: 1.5-2.2 leaf stage; for growth controlling degree, DIGSP / pest or weed control at 31 g/ha: 31 g a.i./ha; for pest or weed control at 63 g/ha / pest or weed control at 31 g/ha: Digitaria sanguinalis, 504 h, read-out: growth controlling degree, DIGSP; for pest or weed control at 63 g/ha: 63 g a.i./ha
Description: (§1) Upland field soil was put into a 1/170,000 ha pot, and seeds of various plants were sown. Then, when the plants reached predetermined leaf stages [I. barnyardgrass (Echinochloa crus-galli L.), ECHCG: 1.8-2.4 leaf stage, 2. crabgrass (Digitaria sanguinalis L.), DIGSA: 1.5-2.2 leaf stage, 3. green foxtail (Setaria viridis L.), SETVI: 1.7-2.5 leaf stage, 4. redroot pigweed (Amaranthus retroflexus L.), AMARE: 0.1-0.3 leaf stage, 5. prickly sida (Sida spinosa L.), SIDSP: 0.3-0.5 leaf stage, 6. velvetleaf (Abutilon theophrasti), ABUTH: 0.3-0.4 leaf stage, 7. common cocklebur (Xanthium strumarium L.), XANST: 0.2-0.6 leaf stage, 8. rice (Oryza sativa L.), ORYSA: 1.6-2.2 leaf stage, 9. wheat (Triticum aestivum L.), TRZAX: 2.8 leaf stage, 10. corn (Zea mays L.), ZEAMX: 2.2-2.5 leaf stage, 11. soybean (Glycine max Merr.), GLXMA: 0.2-0.3 leaf stage], a wettable powder or emulsifiable concentrate having the compound of the present invention formulated in accordance with a usual formulation method, was weighed so that the active ingredient would be a predetermined amount, and diluted with water in an amount of 500 L/ha. To the diluted solution, 0.1%(v/v) of an agricultural spreader was added. The herbicide adjusted was applied by a small size sprayer for foliage treatment. On the […] day after the application of the herbicide, the growth of the respective plants was visually observed, and the herbicidal effects were evaluated by growth controlling degrees (%) ranging from 0 (equivalent to the untreated control) to 100 (complete kill), whereby the results shown in Table 12, were obtained. Compound Nos. in Table 12 correspond to Compound Nos. in Table 1 to 7 given hereinbefore.

[2] = tested on: redroot pigweed (Amaranthus retroflexus L.), AMARE; assay: as above; conditions: 0.1-0.3 leaf stage
Description: as §1

[3] = tested on: green foxtail (Setaria viridis L.), SETVI; assay: as above; conditions: 1.7-2.5 leaf stage; for growth controlling degree, SETVI / pest or weed control at 31 g/ha: 31 g a.i./ha; for pest or weed control at 63 g/ha / pest or weed control at 31 g/ha: Setaria viridis, 504 h; for pest or weed control at 63 g/ha: 63 g a.i./ha
Description: as §1

[4] = tested on: velvetleaf (Abutilon theophrasti), ABUTH; assay: as above; conditions: 0.3-0.4 leaf stage; for growth controlling degree, ABUTH / pest or weed control at 31 g/ha: 31 g a.i./ha; for pest or weed control at 63 g/ha / pest or weed control at 31 g/ha: Abutilon theophrasti, 504 h; for pest or weed control at 63 g/ha: 63 g a.i./ha
Description: as §1

[5] = tested on: barnyardgrass (Echinochloa crus-galli L.), ECHCG; assay: as above; conditions: 1.8-2.4 leaf stage; for growth controlling degree, ECHCG / pest or weed control at 31 g/ha: 31 g a.i./ha; for pest or weed control at 63 g/ha / pest or weed control at 31 g/ha: Echinochloa crus-galli, 504 h; for pest or weed control at 63 g/ha: 63 g a.i./ha
Description: as §1

[6] = tested on: common cocklebur (Xanthium strumarium L.), XANST; assay: as above; conditions: 0.2-0.6 leaf stage; for growth controlling degree, XANST / pest or weed control at 31 g/ha: 31 g a.i./ha; for pest or weed control at 63 g/ha / pest or weed control at 31 g/ha: Xanthium strumarium, 504 h; for pest or weed control at 63 g/ha: 63 g a.i./ha
Description: as §1

[7] = tested on: soybean (Glycine max Merr.), GLXMA; assay: as above; conditions: 0.2-0.3 leaf stage; for growth controlling degree, GLXMA / pest or weed control at 31 g/ha: 31 g a.i./ha; for pest or weed control at 63 g/ha / pest or weed control at 31 g/ha: Glycine max, 504 h; for pest or weed control at 63 g/ha: 63 g a.i./ha
Description: as §1

[8] = tested on: corn (Zea mays L.), ZEAMX; assay: as above; conditions: 2.2-2.5 leaf stage; for growth controlling degree, ZEAMX / plant injury at 31 g/ha: 31 g a.i./ha; for plant injury at 63 g/ha / plant injury at 31 g/ha: Zea mays, 504 h; for plant injury at 63 g/ha: 63 g a.i./ha
Description: as §1

[9] = tested on: prickly sida (Sida spinosa L.), SIDSP; assay: as above; conditions: 0.3-0.5 leaf stage; for growth controlling degree, SIDSP / pest or weed control at 31 g/ha: 31 g a.i./ha; for pest or weed control at 63 g/ha / pest or weed control at 31 g/ha: Sida spinosa, 504 h; for pest or weed control at 63 g/ha: 63 g a.i./ha
Description: as §1

[10] = tested on: rice (Oryza sativa L.), ORYSA; assay: as above; conditions: 1.6-2.2 leaf stage; for growth controlling degree, ORYSA / plant injury at 31 g/ha: 31 g a.i./ha; for plant injury at 63 g/ha / plant injury at 31 g/ha: Oryza sativa, 504 h; for plant injury at 63 g/ha: 63 g a.i./ha
Description: as §1

[11] = tested on: wheat (Triticum aestivum L.): TRZAX; assay: Test Example 1: pre-emergence herbicidal activity (growth controlling degree); conditions: 20th to 21st day after application
Description: Upland field soil was put into a 1/170,000 ha pot, and seeds of various plants [1. barnyardgrass (Echinochloa crus-galli L.): ECHCC, 2. crabgrass (Digitaria sanguinalis L.): DIGSA, 3. green foxtail (Setaria viridis L.): SETVI, 4. redroot pigweed (Amaranthus retroflexus L.): AMARE, 5. prickly sida (Sida spinosa L.): SIDSP, 6. velvetleaf (Abutilon theophrasti): ABUTH, 7. common cocklebur (Xanthium strumarium L.): XANST, 8. rice (Oryza sativa L.): ORYSA, 9. wheat (Triticum aestivum L.): TRZAX, 10. corn (Zea mays L.): ZEAMX, 11. soybean (Glycine max Merr.): GLXMA] were sown. Then, one day after the sowing, a wettable powder or emulsifiable concentrate having the compound of the present invention formulated in accordance with a usual formulation method, was weighed so that the active ingredient would be a predetermined amount, and diluted with water in an amount of 500 L/ha. The herbicide adjusted was applied by a small size sprayer for pre-emergence treatment. On the 20th to 21st day after the application of the herbicide, the growth of the respective plants was visually observed, and the herbicidal effects were evaluated by growth controlling degrees (%) ranging from 0 (equivalent to the untreated control) to 100 (complete kill), whereby the results shown in Table 11, were obtained. Compound Nos. in Table 11 correspond to Compound Nos. in Table 1 to 7 given hereinbefore.

[12] = tested on: wheat (Triticum aestivum L.), TRZAX; assay: Test Example 2: post-emergence (foliage treatment) herbicidal activity (growth controlling degree); conditions: 2.8 leaf stage
Description: as §1

| Structure (SMILES) | growth controlling degree, AMARE ([2]; 31 g a.i./ha) | pest or weed control at 63 g/ha [1] | pest or weed control at 63 g/ha [3] | pest or weed control at 63 g/ha [4] | pest or weed control at 63 g/ha [5] | pest or weed control at 63 g/ha [6] | pest or weed control at 63 g/ha [7] | plant injury at 63 g/ha [8] | pest or weed control at 63 g/ha [9] | plant injury at 63 g/ha [10] | growth controlling degree, TRZAX ([11]; 250 g a.i./ha) | growth controlling degree, AMARE ([2]; 63 g a.i./ha) | pest or weed control at 31 g/ha [1] | pest or weed control at 31 g/ha [3] | pest or weed control at 31 g/ha [4] | pest or weed control at 31 g/ha [5] | pest or weed control at 31 g/ha [6] | pest or weed control at 31 g/ha [7] | plant injury at 31 g/ha [8] | pest or weed control at 31 g/ha [9] | also measured |
| --- | --- | --- | --- | --- | --- | --- | --- | --- | --- | --- | --- | --- | --- | --- | --- | --- | --- | --- | --- | --- | --- |
| CC1CCc2c(c(Cl)cc(F)c2-c2nn3c(c2Cl)CCCC3)O1 (stereo not shown) [Compound 1-85] | 70% |  |  |  |  |  |  |  |  |  |  |  |  |  |  |  |  |  |  |  | growth controlling degree, DIGSP [1]: 40%; growth controlling degree, SETVI [3]: 80%; growth controlling degree, ABUTH [4]: 100%; growth controlling degree, ECHCG [5]: 70%; growth controlling degree, XANST [6]: 100%; growth controlling degree, GLXMA [7]: 50%; growth controlling degree, ZEAMX [8]: 50%; growth controlling degree, SIDSP [9]: 95%; growth controlling degree, ORYSA [10]: 40% |
| Fc1cc(Cl)c2c(c1-c1ncc(C(F)(F)F)cc1Cl)CCCO2 [Compound 7-2, 3-chloro-2-(8-chloro-6-fluoro-3,4-dihydro-2H-1-benzopyran-5-yl)-5-(trifluoromethyl)-pyridine] |  | 95% | 100% | 100% | 80% | 70% | 60% | 90% | 100% | 60% | 50% |  |  |  |  |  |  |  |  |  |  |
| CCCCCC1CCc2c(c(Cl)cc(F)c2-c2nn(C)c(OC(F)F)c2Cl)O1 (stereo not shown) [Compound 1-101] | 100% |  |  |  |  |  |  |  |  |  |  |  |  |  |  |  |  |  |  |  | growth controlling degree, DIGSP [1]: 100%; growth controlling degree, SETVI [3]: 100%; growth controlling degree, ABUTH [4]: 100%; growth controlling degree, ECHCG [5]: 100%; growth controlling degree, XANST [6]: 100%; growth controlling degree, GLXMA [7]: 70%; growth controlling degree, ZEAMX [8]: 70%; growth controlling degree, TRZAX ([12]; 31 g a.i./ha): 30%; growth controlling degree, SIDSP [9]: 100%; growth controlling degree, ORYSA [10]: 60%; growth controlling degree, TRZAX ([11]; 125 g a.i./ha): 20% |
| Cn1nc(-c2c(F)cc(Cl)c3c2CCCO3)c(Cl)c1C(F)(F)F [Compound 1-2, 4-chloro-3-(8-chloro-6-fluoro-3,4-dihydro-2H-1-benzopyran-5-yl)-1-methyl-5-(trifluoromethyl)-1H-pyrazole] |  | 60% | 70% | 100% | 98% | 100% | 60% | 60% | 98% | 50% |  | 100% |  |  |  |  |  |  |  |  | growth controlling degree, TRZAX ([12]; 63 g a.i./ha): 30% |
| CC1CCc2c(c(Cl)cc(F)c2-c2nn(C)c(C(F)(F)F)c2Cl)O1 (stereo not shown) [Compound 1-8] | 95% |  |  |  |  |  |  |  |  |  |  |  | 10% | 30% | 100% | 0% | 70% | 40% | 50% | 80% | plant injury at 31 g/ha [10]: 40% |
| Cn1nc(-c2c(F)cc(Cl)c3c2CCC(c2ccccc2)O3)c(Cl)c1OC(F)F (stereo not shown) [Compound 1-42] |  | 50% | 98% | 100% | 60% | 100% | 60% | 30% | 100% | 70% | 0% | 100% |  |  |  |  |  |  |  |  |  |
| Fc1cc(Cl)c2c(c1-c1nn3c(c1Cl)CCCC3)CCCO2 [Compound 1-79, 3-chloro-2-(8-chloro-6-fluoro-3,4-dihydro-2H-1-benzopyran-5-yl)-4,5,6,7-tetrahydro-pyrazolo[1,5-a]pyridine] | 90% |  |  |  |  |  |  |  |  |  | 10% |  | 40% | 100% | 100% | 95% | 100% | 70% | 50% | 98% | plant injury at 31 g/ha [10]: 50% |
| Cn1nc(-c2c(F)cc(Cl)c3c2CCCO3)c(Cl)c1OC(F)F [Compound 1-33, 4-chloro-3-(8-chloro-6-fluoro-3,4-dihydro-2H-1-benzopyran-5-yl)-5-(difluoromethoxy)-1-methyl-1H-pyrazole] |  | 100% | 100% | 100% | 100% | 100% | 100% | 100% | 100% | 98% |  | 100% |  |  |  |  |  |  |  |  | growth controlling degree, TRZAX ([12]; 63 g a.i./ha): 98%; growth controlling degree, TRZAX ([11]; 125 g a.i./ha): 70% |
| CC1CCc2c(c(Cl)cc(F)c2-c2nn(C)c(OC(F)F)c2Cl)O1 (stereo not shown) [Compound 1-39] | 100% |  |  |  |  |  |  |  |  |  |  |  | 100% | 100% | 100% | 100% | 100% | 100% | 98% | 100% | plant injury at 31 g/ha [10]: 98% |
